Earlier results as cited in patent publication EP2698169A1, “A contrast agent-binding polypeptide and use thereof” (Universität Duisburg-Essen, priority 2012, dated 2014).

Details: literature [26]; conventional small molecular contrast agents

Structure (SMILES) | Relaxivities
CNC[C@H](O)[C@@H](O)[C@H](O)[C@H](O)CO.CNC[C@H](O)[C@@H](O)[C@H](O)[C@H](O)CO.O=C([O-])CN(CCN(CC(=O)[O-])CC(=O)O)CCN(CC(=O)[O-])CC(=O)O.[Gd+3] [DTPA-Gd^3+, gadopentetic acid] | below 10 s^-1mM^-1
O=C([O-])CN1CCN(CC(=O)[O-])CCN(CC(=O)O)CCN(CC(=O)[O-])CC1.[Gd+3] [DOTA-Gd^3+] | below 10 s^-1mM^-1
